Assay results taken from US20020035157A1, “Pharmaceutical compositions” (priority 1999, published 2002).
Like-named read-outs stand apart in the source and are kept apart here.

Assays:
[1] = test system: patients with osteoarthritis pain
[2] = test system: healthy individuals; conditions: 0.1 ml cream on 1 inch^2 of dorsum of non-dominant hand, single application, rated after 6 hours, 0-10 VAS, 40 volunteers
[3] = test system: patients with osteoarthritis pain; assay: Randomised, double blind, placebo controlled study in painful osteoarthritis: pain scores, analgesic consumption, desire to continue (Example 2); format: in vivo, human; conditions: for Reduction in pain score (VAS): after 42 days versus baseline pain score 4.2 (mean of days 1-4); for Reduction in pain score (VAS) compared to placebo: after 42 days, decrease beyond that given by cream vehicle alone; for percentage of patients who wished to continue with treatment: after six weeks; for Reduction in daily tablet consumption / Tablets per day after treatment: analgesic use; for Reduction in daily tablet consumption: from initial mean of 4 tablets daily; for Tablets per day after treatment: at beginning of treatment 4 tablets per day; for Mean Pain Score after 42 days (VAS): cream four times daily for six weeks to one painful joint, 0-10 VAS, baseline pain score 4.2; for Patients not wishing to continue / Patients wishing to continue: desire to continue with current treatment after six weeks
[4] = test system: patients; conditions: cited from earlier work

SMILES | Application discomfort - Baseline scores versus treatment, VAS ([1]; regression estimate of baseline discomfort relative to the other groups, 10 cm VAS) [VAS] | VAS: median (range), burning discomfort [2] [VAS] | VAS: median (range), burning discomfort ([2]; listed as C) | Reduction in pain score (VAS) [3] [VAS] | Reduction in pain score (VAS) compared to placebo [3] [VAS] | percentage of patients who wished to continue with treatment [3] [%] | Reduction in daily tablet consumption [3] [tablets] | Reduction in daily tablet consumption ([3]; listed as capsaicin) [tablets] | Tablets per day after treatment [3] [tablets per day] | Mean Pain Score after 42 days (VAS) [3] [VAS] | Patients not wishing to continue [3] [patients] | Patients wishing to continue [3] [patients] | patients who suffered burning after application ([4]; 0.025% capsaicin, Watson and colleagues, Clinical Therapeutics 1993) | patients who suffered burning discomfort after application ([4]; 0.075% capsaicin, The Capsaicin Study Group) | initial application discomfort ([1]; equal effect to placebo) | Application discomfort - changes resulting from baseline score, Coefficient ([1]; human, in vivo) | VAS: median (range), burning discomfort ([2]; listed as D)
COc1cc(CNC(=O)CCCC/C=C/C(C)C)ccc1O [Capsaicin, N-(4-hydroxy-3-methoxybenzyl)-8-methylnon-trans-6-enamide] | 2.1 | 3 | 3 (0-7) VAS | 0.5 | 0.28 | 24.4 | 0.28 | 0.28 | 3.72 | 3.70 | 29 | 11 | 9 of 33 | 87 of 138 | – | – | –
O=[N+]([O-])OCC(CO[N+](=O)[O-])O[N+](=O)[O-] [GTN, Glyceryl trinitrate] | – | 0 | – | 0.59 | 0.37 | 27.5 | – | – | 3.52 | 3.61 | 34 | 11 | – | – | marginal initial discomfort | 0.33 | 0 (0-2) VAS
